# Paper PMC5567249, “Reversible inactivation of a peptidoglycan transpeptidase by a β-lactam antibiotic mediated by β-lactam-ring recyclization in the enzyme active site” (Scientific Reports, 2017)
# Tests used:
# Ldtfm [1] = biological target: T1, Ldtfm (Enterococcus faecium, UniProt Q3Y185); assay: stopped-flow competition with nitrocefin at […] nm; type: binding; settings: covalent; irreversible acylation; 22 µM enzyme, 50 µM nitrocefin, 64 µM imipenem; 100 mM sodium phosphate pH 6.0; 20 °C
# T1 construct: gene HMPREF0351_12555; catalytic domain, residues 341 to 466
# Ldtfm [2] = biological target: T1, Ldtfm; assay: stopped-flow spectrophotometry at […] nm, slope of kobs against nitrocefin concentration; type: biochemical; settings: covalent; reversible acylation of catalytic Cys; 11 µM enzyme; 100 mM sodium phosphate pH 6.0; 20 °C
# T1 sequence (Q3Y185 entry or part of it): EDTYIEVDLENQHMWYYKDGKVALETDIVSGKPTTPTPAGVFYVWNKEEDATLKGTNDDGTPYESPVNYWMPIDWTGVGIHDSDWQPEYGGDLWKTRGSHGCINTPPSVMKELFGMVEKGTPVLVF
SMILES,stopped-flow competition with nitrocefin at 486 nm (Ldtfm [1]),efficacy of the acylation reaction (Ldtfm [2])
C[C@@H](O)[C@H]1C(=O)N2C(C(=O)O)=C(SCCN=CN)C[C@H]12 [imipenem],imipenem gradually replaced nitrocefin in the enzyme active site,–
O=C(Cc1cccs1)N[C@@H]1C(=O)N2C(C(=O)O)=C(/C=C/c3ccc([N+](=O)[O-])cc3[N+](=O)[O-])CS[C@H]12 [nitrocefin],–,"24,000 ± 700 M^−1 s^−1"
